Values of other authors in patent publication US20200268735A1, “Combination Therapy of Lasmiditan and a CGRP Antagonist for Use in the Treatment of Migraine” (Eli Lilly and Company, priority 2017, published 2020).
Where two headings read alike, the source gives them in different places.

B1: galcanezumab: monoclonal antibody targeting calcitonin gene-related peptide (CGRP) (antibody, chains of the INN, looked up, V domains shown)
VH: QVQLVQSGAEVKKPGSSVKVSCKASGYTFGNYWMQWVRQAPGQGLEWMGAIYEGTGKTVYIQKFADRVTITADKSTSTAYMELSSLRSEDTAVYYCARLSDYVSGFGYWGQGTTVTVSS
VL: DIQMTQSPSSLSASVGDRVTITCRASKDISKYLNWYQQKPGKAPKLLIYYTSGYHSGVPSRFSGSGSGTDFTLTISSLQPEDFATYYCQQGDALPPTFGGGTKVEIK

How the values were obtained:
[1] = SPARTAN, lasmiditan 200 mg, p<0.001
[2] = SAMURAI, lasmiditan 200 mg, p<0.001
[3] = for reduction in mean monthly migraine headache days: placebo 2.3 days

Molecule	severity of most treatment-emergent adverse events (after the first dose)	headache pain-free and MBS-free endpoints, other dose groups compared to placebo (lasmiditan 100 mg, 50 mg, both endpoints)	most frequently reported TEAEs after the first dose (≥2% and greater than placebo)	proportion of patients headache pain-free at 2 hours post-first dose ([1]; placebo 21.3%) [%]	proportion of patients most bothersome symptom (MBS)-free at 2 hours post-first dose ([1]; placebo 33.5%) [%]	proportion of patients headache pain-free at 2 hours post-first dose ([2]; placebo 15.3%) [%]	proportion of patients most bothersome symptom (MBS)-free at 2 hours post-first dose ([2]; placebo 29.5%) [%]	adverse events significantly more frequent versus placebo ([3]; 240 mg group)	all key secondary endpoints versus placebo ([3]; both doses (120 and 240 mg))	adverse events significantly more frequent versus placebo ([3]; both galcanezumab doses)	reduction in mean monthly migraine headache days ([3]; galcanezumab 120 mg once monthly) [days]	reduction in mean monthly migraine headache days ([3]; galcanezumab 240 mg once monthly) [days]	most common treatment-emergent adverse event ([3]; reported at similar rates in all treatment groups)
CN1CCC(C(=O)c2cccc(NC(=O)c3c(F)cc(F)cc3F)n2)CC1 [lasmiditan, 2,4,6-trifluoro-N-[6-(1-methyl-piperidin-4-ylcarbonyl)-pyridin-2-yl]-benzamide]	mild-to-moderate	significance was also noted	dizziness, paresthesia, somnolence, fatigue, nausea, and lethargy	38.8	48.7	32.2	40.7	–	–	–	–	–	–
B1	–	–	–	–	–	–	–	significantly more injection site erythema	superior to placebo	significantly more injection site reactions and injection site pruritus	4.3	4.2	Injection site pain
